Results as given in article PMC10053770, “Assessment of the Pharmacokinetics, Disposition, and Duration of Action of the Tumour-Targeting Peptide CEND-1” (International Journal of Molecular Sciences, 2023).
Bridges are numbered along the chain shown (N, C = ends). Where no end group is shown, it is not given here.

Tested on: HCCs of TGFα/c-myc mice
Assay: Tumour penetration assessment with Evans blue
Type: in vivo, mouse
Conditions: 4 μmol/kg peptide i.v.; Evans blue 33 mg/kg i.v. 24 h later; photometric quantification; n = 11 tumours from four animals
Protocol: Homozygous metallothionein/TGFα and albumin/c-myc single transgenic mice in CD13B6CBA background were crossed to generate the male TGFα/c-myc bitransgenic mice, as previously described. Hepatocarcinogenesis was accelerated by giving the mice ZnCl2 (via the drinking water) to induce the expression of TGFα. The animals were inspected every 2 to 3 days. To detect and monitor the endogenously formed HCCs in the TGFα/c-myc mice, gadoxetic acid (Gd-EOB-DTPA)-enhanced MRI was performed on a 3T MRI scanner (Siemens Magnetom Trio, Siemens Medical Solutions) as described recently. Mice with HCC as identified by Gd-EOB-DTPA-enhanced MRI were used in the subsequent experiments.
TGFα/c-myc mice with confirmed liver tumours according to Gd-EOB-DTPA […]-enhanced MRI or nude mice with HepG2 tumours received iRGD/CEND-1 or RGD control peptide (4 μmol/kg each), or PBS by tail vein injection. […] Another 30 min later, the mice were terminally perfused with Ringer solution by cannulation of the left heart ventricle. Organs were inspected macroscopically following laparotomy, and the liver, tumour and other organs were excised. Evans blue was extracted from tissues in N,N-dimethylformamide for 24 h at 37 °C and quantified spectrophotometrically (Beckman Coulter DU 800, Beckman Coulter, Brea, CA, USA) at 600 nm.

## CRGDDGPKC (disulfide 1-9 (inferred)) [RGD control peptide, RGD control peptide (…)]
  increase in Evans blue in the tumour tissue: no effect
